Assay results as given in publication PMC11601618 (bioRxiv, 2024).

Experiments:
[1] = biological target: T1, chicken BEST1 (bestrophin 1) (Gallus gallus, UniProt A0A8V0ZZU7); assay: cryo-EM structure with […] GABA; type: biochemical
T1 sequence (A0A8V0ZZU7 1-405): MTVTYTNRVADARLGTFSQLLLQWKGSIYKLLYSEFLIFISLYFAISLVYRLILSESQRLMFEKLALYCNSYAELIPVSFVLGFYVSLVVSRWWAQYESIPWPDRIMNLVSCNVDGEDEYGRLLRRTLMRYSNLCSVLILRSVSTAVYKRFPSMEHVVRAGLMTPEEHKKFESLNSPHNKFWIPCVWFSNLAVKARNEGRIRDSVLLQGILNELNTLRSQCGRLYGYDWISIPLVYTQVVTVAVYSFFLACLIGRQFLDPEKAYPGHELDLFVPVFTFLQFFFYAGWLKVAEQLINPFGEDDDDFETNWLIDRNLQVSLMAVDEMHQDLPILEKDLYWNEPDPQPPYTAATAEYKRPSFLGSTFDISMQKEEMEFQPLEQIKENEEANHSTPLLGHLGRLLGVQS

cryo-EM structure = biological target: the molecule itself; assay: cryo-EM structure

NCCCC(=O)O [GABA]
EC50 [1]: ~2000 µM

B1: human BEST1 (spanning amino acids 1-398) (domain or fragment, UniProt O76090 1-398, looked up)
chain: MTITYTSQVANARLGSFSRLLLCWRGSIYKLLYGEFLIFLLCYYIIRFIYRLALTEEQQLMFEKLTLYCDSYIQLIPISFVLGFYVTLVVTRWWNQYENLPWPDRLMSLVSGFVEGKDEQGRLLRRTLIRYANLGNVLILRSVSTAVYKRFPSAQHLVQAGFMTPAEHKQLEKLSLPHNMFWVPWVWFANLSMKAWLGGRIRDPILLQSLLNEMNTLRTQCGHLYAYDWISIPLVYTQVVTVAVYSFFLTCLVGRQFLNPAKAYPGHELDLVVPVFTFLQFFFYVGWLKVAEQLINPFGEDDDDFETNWIVDRNLQVSLLAVDEMHQDLPRMEPDMYWNKPEPQPPYTAASAQFRRASFMGSTFNISLNKEEMEFQPNQEDEEDAHAGIIGRFLGLQS
stoichiometry N (cryo-EM structure): 5
